Test results taken from patent US10822334B2, “ErbB receptor inhibitors” (Dizal (Jiangsu) Pharmaceutical Co., Ltd., priority 2018, dated 2020).

What was measured:
Format in all cases: cell-based
WT HER2 = WT HER2 (Homo sapiens (Human), UniProt P04626); test: HER2 (Y1248) phosphorylation in BT474 cells (MSD); settings: p-HER2 (Y1248)/total HER2, 4 h, read-out: HER2 WT Amplification BT474 IC50
Method: The plates were incubated for 4 h at 37° C. with 5% CO2 and then the HER2 (Y1248) phosphorylation level of cells in each well were measured with MSD Kit (Phospho-ErbB2 ([…]) Assay Whole Cell Lysate Kit: Cat # […]-3). The assay is a electrochemiluminescent method (MESO SCALE DISCOVERY) for determining both phosphorylated and total HER2 of cells with an MSD SECTOR® Imager and then the ratio of p-HER2/total HER2 can be generated by the machine.

WT EGFR = WT EGFR (Homo sapiens (Human), UniProt P00533); test: EGFR (Y1068) phosphorylation in NCI-H838 cells (MSD); settings: p-EGFR (Y1068)/total EGFR, 4 h, hEGF stimulation
BT474 cells = test: BT474 anti-proliferation assay (MTS); settings: Homo sapiens, BT-474; BT474 cells, 72 h, MTS; read-out: HER2 WT Amplification BT474 GI50
Method: A compound's activity of selective inhibition for HER2 wild type amplification can be evaluated with BT474 cell line (ATCC® HTB-20™). The cell line expressed phosphorylated HER2 protein and its proliferation depended on the amplified gene, which could be used for in vitro PD and anti-proliferation assays.
The anti-proliferation activity of compounds were determined as following procedure: The BT474 cells were sorted in 384 well plates with the DMEM medium containing 10% FBS and […] overnight and then dosed with tested compounds at a series of concentrations (30 μM, 10 μM, 3 μM, 0.3 μM, 0.1 μM, 0.03 μM, 0.01 μM, 0.001 μM) on next day. Meanwhile, another cells plate was prepared for measuring GO value on next day. The dosed plates were incubate for 72h at 37° C. with 5% CO2 and the number of viable cells in each well of GO or dosed plates were measured by MTS (CellTiter 96® AQueous One Solution Cell Proliferation Assay, Promega) endpoint. This assay is a colorimetric method for determining the number viable cells in the proliferation assay. Detection reagents (5 μl) was dispensed into per well, and the plates were incubated for 2 hrs at room temperature. Then, absorbance at 490 nm and 650 nm (reference wavelength) in each well was measured using the safile II. (Tecan). The percentage of proliferation was got from the formula: % Proliferation=100×(G3 value of sample well-Go value)/(G3 value of DMSO control-Go value). The GI50 values were further calculated as the compounds concentration required for 50% Proliferation in best-fit curves using Genedata Screener® software.

Sequence of WT HER2 (P04626 23-1255): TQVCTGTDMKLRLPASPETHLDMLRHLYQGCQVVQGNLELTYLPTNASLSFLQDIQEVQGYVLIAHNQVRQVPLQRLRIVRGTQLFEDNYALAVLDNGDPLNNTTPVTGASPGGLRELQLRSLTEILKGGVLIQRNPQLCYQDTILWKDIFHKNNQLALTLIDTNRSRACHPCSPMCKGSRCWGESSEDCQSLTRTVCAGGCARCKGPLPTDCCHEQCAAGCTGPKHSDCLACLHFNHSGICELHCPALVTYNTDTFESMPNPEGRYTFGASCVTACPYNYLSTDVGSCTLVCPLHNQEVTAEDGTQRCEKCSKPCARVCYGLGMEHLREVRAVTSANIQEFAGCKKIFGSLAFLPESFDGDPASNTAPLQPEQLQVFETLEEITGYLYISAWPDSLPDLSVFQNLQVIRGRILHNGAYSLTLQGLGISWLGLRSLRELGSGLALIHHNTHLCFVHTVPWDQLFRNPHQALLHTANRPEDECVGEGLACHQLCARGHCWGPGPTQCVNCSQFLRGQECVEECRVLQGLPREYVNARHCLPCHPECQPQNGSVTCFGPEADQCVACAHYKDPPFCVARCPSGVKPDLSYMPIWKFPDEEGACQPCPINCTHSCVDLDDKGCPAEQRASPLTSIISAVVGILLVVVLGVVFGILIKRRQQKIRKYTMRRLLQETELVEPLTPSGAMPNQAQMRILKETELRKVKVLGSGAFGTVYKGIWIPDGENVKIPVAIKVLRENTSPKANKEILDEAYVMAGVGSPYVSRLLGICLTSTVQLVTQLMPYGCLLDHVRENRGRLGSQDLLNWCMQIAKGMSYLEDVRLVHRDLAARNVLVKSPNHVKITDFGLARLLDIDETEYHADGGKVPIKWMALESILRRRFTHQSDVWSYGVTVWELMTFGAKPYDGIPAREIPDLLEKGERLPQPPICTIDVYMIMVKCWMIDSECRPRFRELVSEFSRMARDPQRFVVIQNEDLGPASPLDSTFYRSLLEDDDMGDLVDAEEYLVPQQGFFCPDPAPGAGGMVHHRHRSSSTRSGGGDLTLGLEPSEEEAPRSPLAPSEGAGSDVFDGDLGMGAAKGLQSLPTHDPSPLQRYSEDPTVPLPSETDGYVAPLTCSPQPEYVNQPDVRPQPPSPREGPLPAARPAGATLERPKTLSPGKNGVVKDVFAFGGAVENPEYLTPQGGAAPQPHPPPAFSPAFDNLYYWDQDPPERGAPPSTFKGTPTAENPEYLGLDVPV
Sequence of WT EGFR (P00533 25-1210): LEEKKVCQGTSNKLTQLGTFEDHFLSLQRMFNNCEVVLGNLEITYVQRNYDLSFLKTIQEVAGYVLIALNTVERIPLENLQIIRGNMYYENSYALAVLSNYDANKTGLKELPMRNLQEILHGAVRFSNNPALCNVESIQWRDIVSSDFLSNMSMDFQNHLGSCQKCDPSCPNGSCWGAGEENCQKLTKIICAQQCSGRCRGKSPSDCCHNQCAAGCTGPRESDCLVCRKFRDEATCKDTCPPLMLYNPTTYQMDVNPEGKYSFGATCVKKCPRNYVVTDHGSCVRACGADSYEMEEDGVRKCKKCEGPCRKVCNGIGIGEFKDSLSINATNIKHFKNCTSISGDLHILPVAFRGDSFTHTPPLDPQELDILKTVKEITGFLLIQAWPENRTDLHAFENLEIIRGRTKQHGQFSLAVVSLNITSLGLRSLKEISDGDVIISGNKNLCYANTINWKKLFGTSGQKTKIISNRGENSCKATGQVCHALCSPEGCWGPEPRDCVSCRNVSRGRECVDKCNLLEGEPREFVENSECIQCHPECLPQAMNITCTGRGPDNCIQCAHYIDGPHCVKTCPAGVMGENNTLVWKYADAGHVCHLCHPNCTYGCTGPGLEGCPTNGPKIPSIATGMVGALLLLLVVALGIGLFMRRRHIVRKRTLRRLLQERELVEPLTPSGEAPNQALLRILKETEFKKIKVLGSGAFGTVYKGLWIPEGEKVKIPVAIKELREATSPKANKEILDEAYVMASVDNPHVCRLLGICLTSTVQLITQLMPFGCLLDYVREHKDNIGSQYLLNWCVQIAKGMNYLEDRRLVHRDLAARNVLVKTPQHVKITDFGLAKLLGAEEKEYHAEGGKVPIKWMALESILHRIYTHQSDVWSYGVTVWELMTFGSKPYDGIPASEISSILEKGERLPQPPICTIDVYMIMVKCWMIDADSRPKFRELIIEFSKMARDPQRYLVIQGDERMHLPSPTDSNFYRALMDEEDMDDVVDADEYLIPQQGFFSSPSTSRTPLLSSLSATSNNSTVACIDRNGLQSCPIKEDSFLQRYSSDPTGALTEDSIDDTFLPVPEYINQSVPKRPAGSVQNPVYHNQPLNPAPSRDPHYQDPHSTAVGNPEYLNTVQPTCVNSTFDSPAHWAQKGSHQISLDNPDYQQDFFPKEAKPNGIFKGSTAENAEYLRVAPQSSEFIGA

IC50 (WT HER2)	IC50 (WT EGFR)	GI50 (BT474 cells)	SMILES
0.00255 µM	> 10 µM	–	Cc1cc(Nc2ncnc3cccc(OC4CCNC(C(F)F)C4)c23)ccc1Oc1ccn2ccnc2c1 (racemic) [Compound 15, (±)-(5-(((2S,4S)-2-(difluoromethyl)piperidin-4-yl)oxy)-N-(4-(imidazo[1,2-a]pyridin-7-yloxy)-3-methylphenyl)quinazolin-4-amine]
0.00584 µM	> 10 µM	0.0141 µM	[2H]C([2H])([2H])Oc1ccc2ncnc(Nc3ccc(Oc4ccn5ncnc5c4)c(C)c3)c2c1OC1CCN(C([2H])([2H])[2H])CC1(F)F (racemic) [Compound 26, (±)-N-(4-([1,2,4]triazolo[1,5-a]pyridin-7-yloxy)-3-methylphenyl)-5-((3,3-difluoro-1-(methyl-d3)piperidin-4-yl)oxy)-6-(methoxy-d3)quinazolin-4-amine]
0.026 µM	> 3 µM	0.0447 ± 0.0042 µM	COc1ccc2ncnc(Nc3ccc(Oc4ccn5ncnc5c4)c(C)c3)c2c1OC1CCN(C)CC1F (single isomer, unassigned) [Compound 3, N-(4-([1,2,4]triazolo[1,5-a]pyridin-7-yloxy)-3-methylphenyl)-5-((3-fluoro-1-methylpiperidin-4-yl)oxy)-6-methoxyquinazolin-4-amine]
0.00683 µM	> 3 µM	0.0151 ± 0.00819 µM	COc1ccc2ncnc(Nc3ccc(Oc4ccn5ncnc5c4)c(C)c3)c2c1OC1CN(C)CCC1(F)F (single isomer, unassigned) [Compound 5, N-(4-([1,2,4]triazolo[1,5-a]pyridin-7-yloxy)-3-methylphenyl)-5-((4,4-difluoro-1-methylpiperidin-3-yl)oxy)-6-methoxyquinazolin-4-amine]
0.00557 µM	> 3 µM	0.00836 ± 0.00015 µM	Cc1cc(Nc2ncnc3cccc(OC4CCN(C)CC4(F)F)c23)ccc1Oc1ccc2c(c1)ncn2C (single isomer, unassigned) [Compound 7, 5-((3,3-difluoro-1-methylpiperidin-4-yl)oxy)-N-(3-methyl-4-((1-methyl-1H-benzo[d]imidazol-5-yl)oxy)phenyl)quinazolin-4-amine]
0.00692 µM	1.8 µM	0.00747 ± 0.00299 µM	COc1cc(OC2CCN(C)CC2(F)F)c2c(Nc3ccc(Oc4ccn5ccnc5c4)c(C)c3)ncnc2c1 (single isomer, unassigned) [Compound 8, 5-((3,3-difluoro-1-methylpiperidin-4-yl)oxy)-N-(4-(imidazo[1,2-a]pyridin-7-yloxy)-3-methylphenyl)-7-methoxyquinazolin-4-amine]
0.0162 µM	1.03 µM	0.0273 ± 0.0145 µM	Cc1cc(Nc2ncnc3cccc(OC4CCN(C)CC4(F)F)c23)ccc1Oc1ccc2ccnn2c1 (single isomer, unassigned) [Compound 9, 5-((3,3-difluoro-1-methylpiperidin-4-yl)oxy)-N-(3-methyl-4-(pyrazolo[1,5-a]pyridin-6-yloxy)phenyl)quinazolin-4-amine]
0.00786 µM	> 3 µM	0.019 ± 0.00246 µM	Cc1cc(Nc2ncnc3cc(N)cc(OC4CCN(C)CC4(F)F)c23)ccc1Oc1ccn2ncnc2c1 (single isomer, unassigned) [Compound 10, N^4-(4-([1,2,4]triazolo[1,5-a]pyridin-7-yloxy)-3-methylphenyl)-5-((3,3-difluoro-1-methylpiperidin-4-yl)oxy)quinazoline-4,7-diamine]
–	–	0.0246 ± 0.00485 µM	Cc1cc(Nc2ncnc3cccc(OC4CCN(C)CC4F)c23)ccc1Oc1ccn2ccnc2c1 (single isomer, unassigned) [Compound 11]
0.00756 µM	> 3 µM	0.00902 µM	CCN1CCC(Oc2cccc3ncnc(Nc4ccc(Oc5ccn6ncnc6c5)c(C)c4)c23)C(F)(F)C1 (single isomer, unassigned) [Compound 12]
0.0126 µM	0.515 µM	0.00858 ± 0.00355 µM	Cc1cc(Nc2ncnc3cc(OC4CCOC4)cc(OC4CCN(C)CC4(F)F)c23)ccc1Oc1ccn2ncnc2c1 (single isomer, unassigned) [Compound 18, N-(4-([1,2,4]triazolo[1,5-a]pyridin-7-yloxy)-3-methylphenyl)-5-((3,3-difluoro-1-methylpiperidin-4-yl)oxy)-7-((tetrahydrofuran-3-yl)oxy)quinazolin-4-amine]
0.0613 ± 0.0112 µM	–	0.0159 ± 0.00657 µM	Cc1cc(Nc2ncnc3cccc(OC4CCN(C)CCC4(F)F)c23)ccc1Oc1ccn2ccnc2c1 (single isomer, unassigned) [Compound 21, 5-((5,5-difluoro-1-methylazepan-4-yl)oxy)-N-(4-(imidazo[1,2-a]pyridin-7-yloxy)-3-methylphenyl)quinazolin-4-amine]
0.0116 ± 0.0104 µM	2.92 ± 2.32 µM	0.0186 ± 0.00651 µM	COc1cc(OC2CCN(C)CC2(F)F)c2c(Nc3ccc(Oc4cc5ncnn5cc4F)c(C)c3)ncnc2c1 (single isomer, unassigned) [Compound 22, 5-((3,3-difluoro-1-methylpiperidin-4-yl)oxy)-N-(4-((6-fluoro-[1,2,4]triazolo[1,5-a]pyridin-7-yl)oxy)-3-methylphenyl)-7-methoxyquinazolin-4-amine]
0.00617 µM	> 10 µM	0.0117 µM	COc1ccc2ncnc(Nc3ccc(Oc4cc5ncnn5cc4F)c(C)c3)c2c1OC1CCN(C)CC1(F)F (single isomer, unassigned) [Compound 23, 5-((3,3-difluoro-1-methylpiperidin-4-yl)oxy)-N-(4-((6-fluoro-[1,2,4]triazolo[1,5-a]pyridin-7-yl)oxy)-3-methylphenyl)-6-methoxyquinazolin-4-amine]
0.00796 µM	> 3 µM	0.00433 ± 0.00063 µM	COc1ccc2ncnc(Nc3ccc(Oc4ccn5ncnc5c4)c(C)c3)c2c1OC[C@H]1CC(F)(F)CCN1C [Compound 4, (R)-N-(4-([1,2,4]triazolo[1,5-a]pyridin-7-yloxy)-3-methylphenyl)-5-((4,4-difluoro-1-methylpiperidin-2-yl)methoxy)-6-methoxyquinazolin-4-amine]
–	–	0.0121 ± 0.00278 µM	CS(=O)(=O)CCNCc1ccc(-c2ccc3ncnc(Nc4ccc(OCc5cccc(F)c5)c(Cl)c4)c3c2)o1 [Lapatinib, reference compound]
0.002 µM	> 3 µM	0.0108 ± 0.00413 µM	Cc1cc(Nc2ncnc3ccc(NC4=NC(C)(C)CO4)cc23)ccc1Oc1ccn2ncnc2c1 [ONT380, reference compound]

SMILES	IC50 (WT HER2)	IC50 (WT EGFR)	GI50 (BT474 cells)
Cc1cc(Nc2ncnc3cccc(O[C@H]4C[C@H]5CC[C@@H](C4)N5CC(F)F)c23)ccc1Oc1ccn2ncnc2c1 [Compound 2, N-(4-([1,2,4]triazolo[1,5-a]pyridin-7-yloxy)-3-methylphenyl)-5-(((1R,3r,5S)-8-(2,2-difluoroethyl)-8-azabicyclo[3.2.1]octan-3-yl)oxy)quinazolin-4-amine]	0.00617 µM	–	0.019 ± 0.0014 µM
Cc1cc(Nc2ncnc3cccc(OC45CCN(CC4)CC5)c23)ccc1Oc1ccn2ccnc2c1 [Compound 13, N-(4-(imidazo[1,2-a]pyridin-7-yloxy)-3-methylphenyl)-5-(quinuclidin-4-yloxy)quinazolin-4-amine]	0.0218 µM	> 3 µM	0.0498 ± 0.00687 µM
